Legend:
Details in all cases: 72 h
[1] = system: myeloid leukemia patient primary cells Pat.15; assay: cell viability (% survival relative to DMSO control); higher = less cytotoxic
How it was run: (§1)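 Mononuclear cells from patients with AML or CML were thawed, purified on Ficoll and placed in RPMI 1640 with 10% FBS at 10,000 cells/well on 384-well plates. The plates came pre-printed with 70 compounds at five tenfold concentrations spanning 1–10,000 nM, in duplicate, and cells were exposed for 72 h. CellTiter-Glo gave viability, scaled between DMSO wells and wells with 10 μM proteasome inhibitor. Where reported, area under the curve was obtained from log-logistic fits with four parameters using the drc and PharmacoGx R packages.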

[2] = system: myeloid leukemia patient primary cells Pat.1; assay: as above
How it was run: as §1

[3] = system: myeloid leukemia patient primary cells Pat.2; assay: as above
How it was run: as §1

[4] = system: myeloid leukemia patient primary cells Pat.7; assay: as above
How it was run: as §1

[5] = system: LAMA-84; assay: cell viability (% survival relative to DMSO control, bortezomib = 0%); higher = less cytotoxic
How it was run: (§2)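 Fifteen myeloid leukaemia cell lines (10 AML, 5 CML) were seeded at a density titrated to the linear growth range into 384-well plates pre-printed with compounds at 1, 10, 100, 1000 or 10000 nM in duplicate. Plates were incubated for 72 h at 37 °C with 5% CO2. Viability was then read by CellTiter-Glo luminescence. Each value is percent survival averaged over the duplicates, with vehicle set to 100% and a 10 µM positive control to 0%.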

[6] = system: MV4-11; assay: as above
How it was run: as §2

[7] = system: NOMO-1; assay: as above
How it was run: as §2

[8] = system: HL-60; assay: area under dose-response curve (viability, 1 nM-10 uM) (fraction (0-1)); higher = more sensitive
How it was run: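 Area under the curve, where listed, was derived from four-parameter log-logistic fits with drc and PharmacoGx. These fits used CellTiter-Glo viability from HL-60 cells in RPMI 1640 with 10% FBS, normalised to DMSO wells and wells holding 10 μM proteasome inhibitor. The full library was rescreened on 384-well plates in duplicate at five tenfold concentrations, 1–10,000 nM, with DMSO or 100 nM of one of three metabolic inhibitors, for 72 h at 37 °C, 5% CO2.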

[9] = system: myeloid leukemia patient primary cells Pat.10; assay: area under dose-response curve (viability, 1 nM-10 uM) (fraction (0-1)); higher = more sensitive
How it was run: as §1

[10] = system: myeloid leukemia patient primary cells Pat.11; assay: as above
How it was run: as §1

[11] = system: myeloid leukemia patient primary cells Pat.12; assay: as above
How it was run: as §1

[12] = system: myeloid leukemia patient primary cells Pat.13; assay: as above
How it was run: as §1

[13] = system: myeloid leukemia patient primary cells Pat.14; assay: as above
How it was run: as §1

[14] = system: myeloid leukemia patient primary cells Pat.15; assay: as above
How it was run: as §1

[15] = system: myeloid leukemia patient primary cells Pat.1; assay: as above
How it was run: as §1

[16] = system: myeloid leukemia patient primary cells Pat.2; assay: as above
How it was run: as §1

[17] = system: myeloid leukemia patient primary cells Pat.3; assay: as above
How it was run: as §1

[18] = system: myeloid leukemia patient primary cells Pat.4; assay: as above
How it was run: as §1

[19] = system: myeloid leukemia patient primary cells Pat.5; assay: as above
How it was run: as §1

[20] = system: myeloid leukemia patient primary cells Pat.6; assay: as above
How it was run: as §1

[21] = system: myeloid leukemia patient primary cells Pat.7; assay: as above
How it was run: as §1

[22] = system: myeloid leukemia patient primary cells Pat.8; assay: as above
How it was run: as §1

[23] = system: myeloid leukemia patient primary cells Pat.9; assay: as above
How it was run: as §1

CC(=O)Nc1nc(C)c(-c2ccc(Cl)c(S(=O)(=O)NCCO)c2)s1 [PIK93]
Details	area under dose-response curve, co-treatment: AZD3965 100 nM	area under dose-response curve, co-treatment: DMSO vehicle	area under dose-response curve, co-treatment: GSK2194069 100 nM	area under dose-response curve, co-treatment: pictilisib 100 nM	cell viability, 1 nM [%]	cell viability, 10 nM [%]	cell viability, 100 nM [%]	cell viability, 1000 nM [%]	cell viability, 10000 nM [%]
[1]	–	–	–	–	83.6	92.9	65.4	9.62	2.38
[2]	–	–	–	–	83.9	67.2	62.5	22.1	12.1
[3]	–	–	–	–	94.4	44.8	95.8	65.5	47.8
[4]	–	–	–	–	61.6	< 0	63.4	64.1	22
[5]	–	–	–	–	113	95.3	102	90.6	55.8
[6]	–	–	–	–	96.3	95.7	84.5	51.1	0.217
[7]	–	–	–	–	101	96.7	92.7	69.1	22.9
[8]	0.172	0.135	0.154	0.181	–	–	–	–	–

Details	area under dose-response curve
[9]	0.728
[10]	0.204
[11]	< 0.0301
[12]	0.214
[13]	0.139
[14]	0.417
[15]	0.365
[16]	0.0748
[17]	0.545
[18]	0.401
[19]	0.907
[20]	0.0757
[21]	0.16
[22]	0.0853
[23]	0.82

C=CCN(C)CCCCCCOc1ccc(C(=O)c2ccc(Br)cc2)c(F)c1.O=C(O)/C=C/C(=O)O [Ro 48-8071 fumarate]
Details	area under dose-response curve, co-treatment: AZD3965 100 nM	area under dose-response curve, co-treatment: DMSO vehicle	area under dose-response curve, co-treatment: GSK2194069 100 nM	area under dose-response curve, co-treatment: pictilisib 100 nM	cell viability, 1 nM [%]	cell viability, 10 nM [%]	cell viability, 100 nM [%]	cell viability, 1000 nM [%]	cell viability, 10000 nM [%]
[1]	–	–	–	–	84	94.1	99.4	94.3	56.6
[2]	–	–	–	–	97.8	94.5	97.4	82.7	37.2
[3]	–	–	–	–	98.4	99.7	97.6	97.1	71.1
[4]	–	–	–	–	> 100	> 100	85.7	61.7	< 0
[5]	–	–	–	–	90.6	100	81.1	83.8	47
[6]	–	–	–	–	91.5	114	84.4	83.4	50.6
[7]	–	–	–	–	104	97	98.1	105	92.7
[8]	0.0549	< 0.0301	0.0331	0.112	–	–	–	–	–

Details	area under dose-response curve
[9]	0.146
[10]	0.0457
[12]	0.0673
[13]	0.0802
[14]	< 0.0301
[15]	0.109
[16]	0.0431
[17]	0.576
[18]	0.0305
[19]	0.146
[20]	0.0624
[21]	0.217
[22]	0.0337
[23]	0.13

CC(C)(C)c1ccc(S(=O)(=O)NCc2ccc(C(=O)Nc3cccnc3)cc2)cc1 [STF-31]
Details	area under dose-response curve, co-treatment: AZD3965 100 nM	area under dose-response curve, co-treatment: DMSO vehicle	area under dose-response curve, co-treatment: GSK2194069 100 nM	area under dose-response curve, co-treatment: pictilisib 100 nM	cell viability, 1 nM [%]	cell viability, 10 nM [%]	cell viability, 100 nM [%]	cell viability, 1000 nM [%]	cell viability, 10000 nM [%]
[1]	–	–	–	–	87.8	90.9	89.8	2.3	1.11
[2]	–	–	–	–	95.2	82	> 100	31.6	16.5
[3]	–	–	–	–	98.4	96.8	84.9	13.2	11.4
[4]	–	–	–	–	80.1	62.7	7.78	< 0	< 0
[5]	–	–	–	–	97.5	94.6	68.8	6.82	2.61
[6]	–	–	–	–	98	139	3.11	0.253	0.177
[7]	–	–	–	–	102	95.7	40.1	6.08	0.284
[8]	0.328	0.342	0.362	0.324	–	–	–	–	–

Details	area under dose-response curve
[9]	0.449
[10]	0.368
[11]	0.366
[12]	0.358
[13]	0.653
[14]	0.375
[15]	0.267
[16]	0.367
[17]	0.745
[18]	0.567
[19]	0.896
[20]	0.357
[21]	0.66
[22]	0.433
[23]	0.8

CO[C@H]1C[C@@H]2CC[C@@H](C)[C@@](O)(O2)C(=O)C(=O)N2CCCC[C@H]2C(=O)O[C@H]([C@H](C)C[C@@H]2CC[C@@H](OC(=O)C(C)(CO)CO)[C@H](OC)C2)CC(=O)[C@H](C)/C=C(\C)[C@@H](O)[C@@H](OC)C(=O)[C@H](C)C[C@H](C)/C=C/C=C/C=C/1C [Temsirolimus]
Details	area under dose-response curve, co-treatment: AZD3965 100 nM	area under dose-response curve, co-treatment: DMSO vehicle	area under dose-response curve, co-treatment: GSK2194069 100 nM	area under dose-response curve, co-treatment: pictilisib 100 nM	cell viability, 1 nM [%]	cell viability, 10 nM [%]	cell viability, 100 nM [%]	cell viability, 1000 nM [%]	cell viability, 10000 nM [%]
[1]	–	–	–	–	69.7	47.8	38.4	39.2	21.8
[2]	–	–	–	–	89.3	47.4	52.9	70.1	51.8
[3]	–	–	–	–	79.1	69	69.6	80.6	63
[4]	–	–	–	–	77.4	68.2	55.9	73.9	< 0
[5]	–	–	–	–	90.6	63.2	65	49.2	40.9
[6]	–	–	–	–	89.6	63.6	62.3	53.2	37.3
[7]	–	–	–	–	79.9	67.5	76.8	60.9	52.9
[8]	< 0.0301	< 0.0301	< 0.0301	< 0.0301	–	–	–	–	–

Details	area under dose-response curve
[9]	0.123
[10]	< 0.0301
[11]	< 0.0301
[12]	< 0.0301
[13]	0.142
[14]	0.584
[15]	0.0628
[16]	< 0.0301
[17]	0.123
[18]	0.206
[19]	0.798
[20]	< 0.0301
[21]	0.146
[22]	< 0.0301
[23]	0.608

CN1CCN(CCCN2c3ccccc3Sc3ccc(C(F)(F)F)cc32)CC1 [Trifluoperazine]
cell viability [%]
Details	[1]	[2]	[3]	[4]	[5]	[6]	[7]
1 nM	98.2	97.8	> 100	87.1	101	99.5	104
10 nM	91.9	93.7	> 100	68.6	100	79.6	108
100 nM	> 100	94.1	> 100	42.7	98.8	93.8	101
1000 nM	78.4	56	75.6	< 0	83	89.9	88.3
10000 nM	45.9	19.4	48.6	< 0	76.5	50.3	81

Details	area under dose-response curve
[9]	0.362
[10]	0.174
[11]	0.0812
[12]	0.182
[13]	0.294
[14]	0.102
[15]	0.209
[16]	0.108
[17]	0.429
[18]	0.162
[19]	0.36
[20]	0.187
[21]	0.517
[22]	0.106
[23]	0.423

— the supplement of paper PMC8671470
